From paper PMC5748833, “Synthesis and Biological Evaluation of Novel Hybrid Molecules Containing Purine, Coumarin and Isoxazoline or Isoxazole Moieties” (The Open Medicinal Chemistry Journal, 2017) come the findings set out here.

Data set [1] concerns the target T1, soybean lipoxygenase (Glycine max, UniProt P08170).
T1 construct: purchased Sigma Chemical, Co. (St. Louis, MO, USA)
T1 sequence (P08170 1-839): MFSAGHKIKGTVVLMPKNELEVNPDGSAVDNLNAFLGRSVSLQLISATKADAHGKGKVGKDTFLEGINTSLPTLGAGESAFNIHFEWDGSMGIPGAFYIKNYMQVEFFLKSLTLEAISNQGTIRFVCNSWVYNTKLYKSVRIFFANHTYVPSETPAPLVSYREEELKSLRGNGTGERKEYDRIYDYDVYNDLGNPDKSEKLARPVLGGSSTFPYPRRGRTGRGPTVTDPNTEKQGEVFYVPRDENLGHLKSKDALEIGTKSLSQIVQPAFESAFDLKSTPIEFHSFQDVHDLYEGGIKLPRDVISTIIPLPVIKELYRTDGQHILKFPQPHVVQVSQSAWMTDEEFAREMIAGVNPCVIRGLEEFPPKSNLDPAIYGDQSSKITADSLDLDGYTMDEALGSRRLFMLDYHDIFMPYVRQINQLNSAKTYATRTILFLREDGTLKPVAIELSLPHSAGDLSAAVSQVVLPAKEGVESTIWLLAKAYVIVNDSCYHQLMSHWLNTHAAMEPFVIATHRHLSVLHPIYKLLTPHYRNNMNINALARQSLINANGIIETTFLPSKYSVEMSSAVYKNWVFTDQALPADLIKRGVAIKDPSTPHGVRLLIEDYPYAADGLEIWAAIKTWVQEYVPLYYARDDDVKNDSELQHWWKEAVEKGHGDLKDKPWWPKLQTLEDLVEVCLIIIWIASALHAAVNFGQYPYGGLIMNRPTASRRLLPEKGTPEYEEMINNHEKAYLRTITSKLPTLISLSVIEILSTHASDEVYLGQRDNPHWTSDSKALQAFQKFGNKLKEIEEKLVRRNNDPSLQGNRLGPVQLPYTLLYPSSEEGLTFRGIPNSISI
Put plainly: Soybean lipoxygenase inhibition in vitro. Conditions: for IC50: read-out: LOX IC50 μΜ. The format is biochemical. The protocol:
2.2.2.4 Soybean lipoxygenase inhibition study in vitro [14]
In vitro study was evaluated as reported previously. The tested compounds dissolved in ethanol were incubated at room temperature with sodium linoleate (0.1 mM) and 0.2 ml of enzyme solution (1/9 x10^-4 w/v in saline). […] Several concentrations were used for the determination of IC50 values (Table 5).
LO is the key enzyme in leukotriene biosynthesis. Leukotrienes derived from the biotransformation of arachidonic acid catalyzed by 5-lipoxygenase (5-LO), are important inflammatory mediators implicated in several diseases. LOs play a role in membrane lipid peroxidation by forming hydroperoxides in the lipid bilayer. […] Most of the LO inhibitors are antioxidants or free radical scavengers, since lipoxygenation occurs via a carbon-centered radical. The evaluation of the novel coumarin hybrids against soybean lipoxygenase LO was accomplished by the UV-based enzyme assay.

Data set [2] can be described thus: Competition of the tested compounds with DMSO for hydroxyl radicals. The note with it: 100 μM compound, Fe3+/ascorbic acid, 30 min, 37°C. The protocol:
2.2.2.2 Competition of the tested compounds with DMSO for hydroxyl radicals
The hydroxyl radicals generated by the Fe ^3+ /ascorbic acid system, were detected according to Nash, by the determination of formaldehyde produced from the oxidation of DMSO. The reaction mixture contained EDTA (0.1 mM), Fe ^3+ (167 μM), DMSO (33 mM) in phosphate buffer (50 mM, pH 7.4), the tested compounds (concentration 0.1mM) and ascorbic acid (10 mM). After 30 min of incubation (37°C) the reaction was stopped with CCl3COOH (17% w/v) (Table 5). Trolox was used as a standard.
Superoxide (O2^-.) anion and hydroxyl radical (^.OH) are free radical species of potential importance. In the acidic conditions of ischemic brain, O2^-. is probably protonated to give HO2^-. species. Iron released from damaged brain cells is more likely to be readily available to catalyze the generation of OH radicals. Among the ROS, the hydroxyl (^•OH) free radical is possibly the most toxic, as it reacts with a number of biological important molecules. Polyunsaturated fatty acids are found in high concentrations in the CNS, and are particularly vulnerable by free radicals. Thus, we tried to test the ability of our compounds to scavenge hydroxyl radicals. […] All the derivatives of series 13 (except of 13i) present high antioxidant activity (80-100%) which is not able to be correlated with any specific structural characteristic since all contain a coumarin, a purine and an isoxazolyl moiery. […] It seems that the overall molar configuration influences the response. However, antioxidants with hydrophilic or lipophilic character are both needed to act as radical scavengers in the aqueous phase or as chain-breaking antioxidants in biological membranes.

Data set [3] in a line: Reducing activity of the stable radical DPPH. The note with it: 100 μM compound, after 20 min. The protocol:
2.2.2.1 Determination of the reducing activity of the stable radical 1, 1-diphenyl-picrylhydrazyl (DPPH)
To a solution of DPPH (100μM) in absolute ethanol an equal volume of the compounds dissolved in ethanol was added. As control solution ethanol was used. The concentration of the solutions of the compounds was 100μM. After 20 and 60 min at room temperature the absorbance was recorded at 517 nm (Table 5). NDGA was used as a standard.
The compounds were studied for their antioxidant activity by the use of the stable 2,2-diphenyl-1-picrylhydrazyl radical (DPPH) at concentration 0.1mM after 20 min. […] This purple colour generally disappears in the presence of an antioxidant. The reduction of absorbance is a measure of the free DPPH due to the action of the antioxidant. The antioxidant activity was expressed as the RA% (Reducing Activity). […] Within the group of derivatives 4 the presence of the morpholinyl or piperidinyl rings at position A as well as the carbonyl group at position B, hinder the interaction of the compounds to the free stable radical DPPH.
(The DPPH test is a chemical assay of radical scavenging.)

Data set [4] is described as follows: Inhibition of linoleic acid lipid peroxidation (AAPH). Conditions: 100 μM compound, 37°C. The protocol: 2.2.2.3 Inhibition of linoleic acid lipid peroxidation
Production of conjugated diene hydroperoxide by oxidation of linoleic acid sodium salt in an aqueous solution was monitored at 234 nm. 2,2’-Azobis(2-amidinopropane) dihydrochloride (AAPH) was used as a free radical initiator. 10 μl of the 16 mM linoleic acid sodium salt solution was added to the UV cuvette containing 0.93 ml of 0.05 M phosphate buffer, pH 7.4 prethermostated at 37°C. The oxidation reaction was initiated at 37°C under air by the addition of 50 μl of 40 mM AAPH solution. Oxidation was carried out in the presence of 10 μl of the examined compounds (stock solution in DMSO). In the assay without antioxidant, lipid oxidation was measured in the presence of the same level of DMSO. The rate of oxidation at 37°C was monitored by recording the increase in absorption at 234 nm caused by conjugated diene hydroperoxides (Table 5). Trolox was used as a standard.
Anti-lipid peroxidation activity. The water-soluble azo compound AAPH has been extensively used as a clean and controllable source of thermally produced alkyl peroxyl free radicals, through spontaneous thermal decomposition. […] In the AAPH assay, the highly reactive alkylperoxyl radicals are intercepted mainly by a hydrogen atom transfer (HAT) from the antioxidant.

Take `Cc1cc(=O)oc2cc(OCC3CC(Cn4cnc5c(N6CCCCC6)ncnc54)=NO3)ccc12` (stereo not shown) [4c]: the melting point – broadly, the temperature of the solid-liquid transition – was 186 to 187 °C. For the same molecule, in data set [1] (100 μM compound), the “%LOX @ 100μΜ” value was “no”. For the same molecule, the “∙ΟΗ % @ 100μΜ (hydroxyl radical scavenging, percent inhibition of formaldehyde production)” value in data set [2] (100 µM) is “did not present any activity and no”. The “RA% @ 100μΜ (reducing activity, DPPH)” value in data set [3] amounted to 17%. Moreover, the “LP % @ 100μΜ (inhibition of lipid peroxidation)” value in data set [4] is listed as 65%.
In turn, `Cc1cc(=O)oc2cc(OCCC3CC(Cn4cnc5c(N6CCCC6)ncnc54)=NO3)ccc12` (stereo not shown) [4j] yielded a melting point of 178 to 180 °C. The inhibition at 100 µM in data set [1] (read-out: %LOX @ 100μΜ) is 37%. Besides, in data set [2] (100 µM), the “∙ΟΗ % @ 100μΜ (hydroxyl radical scavenging, percent inhibition of formaldehyde production)” value was “did not present any activity and no”. The “RA% @ 100μΜ (reducing activity, DPPH)” value in data set [3] was found to be 44%. Also, the “LP % @ 100μΜ (inhibition of lipid peroxidation)” value in data set [4] was determined as 32%.
The molecule `O=C(Oc1ccc2oc(=O)ccc2c1)C1CC(Cn2cnc3c(N4CCCCC4)ncnc32)=NO1` (stereo not shown) [4n] registered a melting point of 175 to 177 °C. In addition, in data set [1], the concentration for half-maximal inhibition (IC50) (as a rule, the concentration at which inhibition is half-maximal) is 35 µM. Also, in data set [2] (100 µM), the “∙ΟΗ % @ 100μΜ (hydroxyl radical scavenging, percent inhibition of formaldehyde production)” value was “did not present any activity and no”. Further, the “RA% @ 100μΜ (reducing activity, DPPH)” value in data set [3] is given as 17%. Moreover, the “LP % @ 100μΜ (inhibition of lipid peroxidation)” value in data set [4] is “no”.
In turn, `O=C(Oc1ccc2oc(=O)ccc2c1)C1CC(Cn2cnc3c(N4CCOCC4)ncnc32)=NO1` (stereo not shown) [4o] displayed a melting point of 184 to 185 °C. Besides, the IC50 in data set [1] turned out to be 60 µM. Moreover, the “∙ΟΗ % @ 100μΜ (hydroxyl radical scavenging, percent inhibition of formaldehyde production)” value in data set [2] (100 µM) is “did not present any activity and no”. Further, the “RA% @ 100μΜ (reducing activity, DPPH)” value in data set [3] was 3%. The “LP % @ 100μΜ (inhibition of lipid peroxidation)” value in data set [4] came to 40%.
Take `Cc1cc(=O)oc2cc(OCC3=NOC(Cn4cnc5c(N6CCCCC6)ncnc54)C3)ccc12` (stereo not shown) [11d]: the melting point lay within 144 to 145 °C. Further, in data set [1], the IC50 was found to be 48 µM. In data set [2] (100 µM), the “∙ΟΗ % @ 100μΜ (hydroxyl radical scavenging, percent inhibition of formaldehyde production)” value was “did not present any activity and no”. In addition, the “RA% @ 100μΜ (reducing activity, DPPH)” value in data set [3] is recorded as 13%. For the same molecule, the “LP % @ 100μΜ (inhibition of lipid peroxidation)” value in data set [4] turned out to be 43%.
With `O=c1ccc2ccc(OCc3cc(Cn4cnc5c(N6CCOCC6)ncnc54)on3)cc2o1` [15b], the melting point lay within 185 to 187 °C. Further, the IC50 in data set [1] was found to be 100 µM. For the same molecule, the “∙ΟΗ % @ 100μΜ (hydroxyl radical scavenging, percent inhibition of formaldehyde production)” value in data set [2] amounted to 48%. Besides, the “RA% @ 100μΜ (reducing activity, DPPH)” value in data set [3] was “no”. Besides, the “LP % @ 100μΜ (inhibition of lipid peroxidation)” value in data set [4] is on record as 52%.
For `O=c1ccc2ccc(OCC3=NOC(n4cnc5c(N6CCCCC6)ncnc54)C3)cc2o1` (stereo not shown) [18a, 7-{[5-(6-piperidin-1-yl-9H-purin-9-yl)-4,5-dihydroisoxazol-3-yl]methoxy}-2H-chromen-2-one], the melting point is 197 to 199 °C. The IC50 in data set [1] turned out to be 90 µM. Besides, the “∙ΟΗ % @ 100μΜ (hydroxyl radical scavenging, percent inhibition of formaldehyde production)” value in data set [2] (100 µM) is “did not present any activity and no”. Further, the “RA% @ 100μΜ (reducing activity, DPPH)” value in data set [3] came to 4%. The “LP % @ 100μΜ (inhibition of lipid peroxidation)” value in data set [4] is “No”.
On to `O=c1ccc2ccc(OCC3=NOC(n4cnc5c(N6CCOCC6)ncnc54)C3)cc2o1` (stereo not shown) [18b], for which the melting point was in the range of 205 to 206 °C. Moreover, the IC50 in data set [1] stood at 100 µM. Also, the “∙ΟΗ % @ 100μΜ (hydroxyl radical scavenging, percent inhibition of formaldehyde production)” value in data set [2] (100 µM) is “did not present any activity and no”. Moreover, the “RA% @ 100μΜ (reducing activity, DPPH)” value in data set [3] was determined as 1%. Also, in data set [4], the “LP % @ 100μΜ (inhibition of lipid peroxidation)” value turned out to be 38%.
